molecular target: T1, human Itk kinase (Homo sapiens, UniProt Q08881); assay: Itk inhibition assay: radioactivity-based assay; format: biochemical; conditions: Ki(app)
T1 sequence (Q08881 1-620): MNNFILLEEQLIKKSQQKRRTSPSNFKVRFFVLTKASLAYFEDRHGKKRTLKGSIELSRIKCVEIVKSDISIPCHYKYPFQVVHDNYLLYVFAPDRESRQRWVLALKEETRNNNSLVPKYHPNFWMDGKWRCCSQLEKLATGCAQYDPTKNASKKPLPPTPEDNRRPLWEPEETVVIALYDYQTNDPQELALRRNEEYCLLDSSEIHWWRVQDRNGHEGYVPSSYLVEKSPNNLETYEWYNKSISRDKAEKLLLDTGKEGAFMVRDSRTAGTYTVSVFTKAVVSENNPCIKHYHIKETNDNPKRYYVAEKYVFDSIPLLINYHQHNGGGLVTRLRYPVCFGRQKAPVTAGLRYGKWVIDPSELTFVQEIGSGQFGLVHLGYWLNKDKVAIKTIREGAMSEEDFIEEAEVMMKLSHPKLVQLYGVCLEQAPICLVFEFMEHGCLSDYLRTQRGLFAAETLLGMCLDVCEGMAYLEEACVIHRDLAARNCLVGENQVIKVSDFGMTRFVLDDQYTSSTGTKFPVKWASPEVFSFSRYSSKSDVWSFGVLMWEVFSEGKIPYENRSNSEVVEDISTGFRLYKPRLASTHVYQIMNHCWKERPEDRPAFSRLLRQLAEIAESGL
Method in brief: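 50 nM Itk with 3 μM SAM68 Δ332-443 peptide and 7.5 μM [γ-33P]ATP in MOPS pH 7.0, MgCl2, 25° C; compound (top 50 μM final, 2-fold dilutions, 2% DMSO) preincubated 10 min, reaction 10 min. Phosphocellulose filter capture and scintillation counting; Ki(app) by non-linear regression of initial rates.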

Row | SMILES | Ki [nM]
1 | Cc1cc(Nc2cc(N3CC(OC(C)C)C3)nc(Sc3ccc(NC(=O)c4ccccc4Cl)cc3)n2)n[nH]1 [Compound 38] | ≤ 100
2 | Cc1cc(Nc2cc(N3CCC3)nc(Sc3ccc(NC(=O)Cc4ccccc4Cl)cc3)n2)[nH]n1 [Compound 57] | 100 to 1000
3 | CCOC1CN(c2cc(Nc3cc(C)[nH]n3)nc(Sc3ccc(NC(=O)c4ccccc4Cl)cc3)n2)C1 [Compound 37] | ≤ 100
4 | CC(C)(C)c1cc(Nc2cc(N3CCC3)nc(Sc3ccc(NC(=O)c4ccccc4Cl)cc3)n2)n[nH]1 [Compound 69] | 1000 to 2000
5 | CCC(=O)Nc1ccc(Sc2nc(Nc3cc(C)n[nH]3)cc(N3CC(OC(C)(C)C)C3)n2)cc1 [Compound 67] | 100 to 1000
6 | Cc1cc(Nc2cc(N3CCC3)nc(Sc3ccc(NC(=O)c4cnccc4C(F)(F)F)cc3)n2)[nH]n1 [Compound 59] | 100 to 1000
7 | COC1(C)CN(c2cc(Nc3cc(C)n[nH]3)nc(Sc3ccc(NC(=O)c4ccccc4Cl)cc3)n2)C1 [Compound 51] | ≤ 100
8 | Cc1cc(Nc2cc(N3CC(C)(O)C3)nc(Sc3ccc(NC(=O)c4ccccc4Cl)cc3)n2)[nH]n1 [Compound 50] | ≤ 100
9 | COCc1cc(Nc2cc(N3CCC3)nc(Sc3ccc(NC(=O)c4ccccc4Cl)cc3)n2)n[nH]1 [Compound 82] | 100 to 1000
10 | CCC(=O)Nc1ccc(Sc2nc(Nc3cc(C)n[nH]3)cc(N3CC(N4CCOCC4)C3)n2)cc1 [Compound 68] | 100 to 1000
